{"source": "patent US6906108B2", "about": "“Extracts of vetiver oil as repellent and toxicant to ants, ticks, and cockroaches” (Board of Supervisors of Louisiana State University and …, priority 2001, dated 2005)", "type_in_all_cases": "in vivo", "key": {"[1]": {"system": "ticks (Ixodes scapularis)", "assay": "Tick Petri dish bioassay with treated sand (repellency and toxicity)", "method": "To test the effectiveness of nootkatone against ticks, ticks (Ixodes scapularis) were collected from Idlewild, La. Nootkatone efficiacy was tested relative to a known repellent, N,N-diethyl-m-toluamide (“Deet”). REPEL®, which contains 27.55% Deet, was purchased locally from a retail garden store.\nThe bioassay was conducted using Petri dishes (5 cm diameter and 1 cm height). To ensure adequate moisture for the ticks, 1 ml of a hot agar solution (1.5% in H2O) was spread evenly on the inside surfaces of the Petri dish, including the top, bottom, and edges. After the agar cooled, sand that was treated as described below was spread evenly on the inside surfaces of the Petri dish. The sand was held in place by the agar.\nFor the treated sand, either 2 mg nootkatone or 100 mg REPEL® was initially dissolved in 2 ml ethanol, and then 200 μl of the solution was mixed with 2 g sand that had been autoclaved and cooled. The control was autoclaved sand with 200 μl ethanol only added. One half of the surfaces in the Petri dishes were covered with 2 g treated sand, and the other half with 2 g untreated sand. In the nootkatone-treated Petri dishes, the final concentration was 200 μg/dish; while in the Deet treated Petri dishes, the final concentration was 2.75 mg/dish. Control Petri dishes were prepared by covering all sides with untreated sand. One tick was added to each Petri dish, and the top replaced. The number of replicates were as follows: control, 6; nootkatone, 9; and Deet, 8. […] Repellent activity was noted if the tick was found on the untreated side of the Petri dish. The ticks in the control Petri dishes were randomly distributed on the left and right sides.\nThe above experiment was repeated with ticks (Ix. scapularis) collected from Hammond, La. The number of replicates in this experiment were as follows: controls, 8; nootkatone, 10; and Deet, 8."}, "[2]": {"system": "cat fleas (Ctenocephalides felis (Bouche))", "assay": "Cat flea Petri dish filter paper bioassay (repellency and mortality)", "method": "To test the effectiveness of nootkatone against fleas, cat fleas (Ctenocephalides felis (Bouche)) were collected from a flea colony at St. Gabriel, La.\nPetri dishes (5 cm diameter and 1 cm height) were prepared by lining one half of the top and the bottom with a half circle of filter paper (55 mm), and lining the other half with a second half circle of filter paper. For the treated Petri dishes, 50 mg nootkatone or 100 mg REPEL® were dissolved in 0.5 ml ethanol. […] Ten replicate Petri dishes were used for each of the treatments. The ethanol solution was added to the filter paper on the top and bottom and dried for 10 min. To place the fleas in the Petri dishes, fleas were temporarily immobilized by placing them at −20° C. for 5 min. The number of fleas in each Petri dish varied: for the 10 control Petri dishes, the average number in each dish was 10.2, with a range of 4 to 23; for 0.2 mg nootkatone, the average number in each dish was 8.5, with a range of 5 to 18; for 1 mg nootkatone, the average number in each dish was 10.6, with a range of 6 to 21; for 2 mg nootkatone, the average number in each dish was 11.1, with a range of 9 to 15 (Fleas could be counted in only 9 Petri dishes; one had too many fleas to count); and for 2.76 mg Deet, the average number in each dish was 6.7, with a range of 5 to 9.\nThe number of fleas on each side of each Petri dish was counted at 1 hr, 2 hr, 3 hr, 4 hr, 24 hr, 48 hr, 72 hr, and 96 hr."}, "[3]": {"system": "German cockroaches (Blattella germanica)", "assay": "German cockroach Petri dish filter paper bioassay (repellency and toxicity)", "method": "To test the efficacy of nootkatone against cockroaches, German cockroaches (Blattella germanica) were collected at Baton Rouge, La., the same day as the bioassay was begun.\nFor the bioassay, Petri dishes (10 cm diameter×1 cm) were used. The Petri dishes were prepared by lining one half of the top and one half of the bottom with a half circle of filter paper (125 mm), and lining the other half with a second half circle of filter paper. For the treated Petri dishes, 50 mg nootkatone and 300 mg REPEL® were dissolved in 2.0 ml ethanol. To each Petri dish was added either ethanol only, 30 mg Deet, 1 mg nootkatone, or 10 mg nootkatone. Ten replicate Petri dishes were used for each of the treatments. The ethanol solution was added to the filter paper on the top and bottom and dried for 10 min. One cockroach was added to each Petri dish. The length of the cockroaches varied from 1 to 1.5 cm. The dishes were then observed at 15 min, 30 min, 1 hr, 2 hr, 3 hr, 4 hr, 5 hr, 24 hr, 48 hr, and 120 hr."}, "[4]": {"conditions": "200 μg/dish vs 2.75 mg/dish Deet"}, "[5]": {"conditions": "200 μg/dish, 10 replicates, ticks from Hammond"}, "[6]": {"conditions": "200 μg/dish, ticks from Hammond"}}}
{"smiles": "C=C(C)C1CCC2=CC(=O)CC(C)C2(C)C1", "note": "(centres unmarked) [nootkatone, 4,4a,5,6,7,8-hexahydro-6-isopropenyl-4,4a-dimethyl-2(3H)-naphthalone]", "values": [{"measurement": "Overall activity against ticks", "setting": "[1]; 200 μg/dish", "value": "effective repellent and toxicant"}, {"measurement": "Duration of repellent activity compared with Deet", "setting": "[1]; [4]", "value": "longer than Deet"}, {"measurement": "Toxicant strength compared with Deet", "setting": "[1]; [4]", "value": "stronger toxicant than Deet"}, {"measurement": "Ticks dead after 90 hr (number)", "setting": "[1]; 200 μg/dish, 9 replicates, one tick per dish, ticks from Idlewild", "value": "four"}, {"measurement": "Ticks dead at 24 hr (number)", "setting": "[1]; [5]", "value": "one"}, {"measurement": "Ticks dead at 72 hr (number)", "setting": "[1]; [5]", "value": "four"}, {"measurement": "Ticks dead at 96 hr (number)", "setting": "[1]; [5]", "value": "nine"}, {"measurement": "Ticks dead at 72 hr (percent)", "setting": "[1]; [6]", "value": 40, "unit": "%"}, {"measurement": "Ticks dead at 96 hr (percent)", "setting": "[1]; [6]", "value": 90, "unit": "%"}, {"measurement": "Ticks dead after 90 hr (percent)", "setting": "[1]; 200 μg/dish, ticks from Idlewild", "value": 50, "unit": "%"}, {"measurement": "Percent Flea Mortality", "setting": "[2]; 0.2 mg per dish, 1 hr", "value": 0, "unit": "%"}, {"measurement": "Percent Flea Mortality", "setting": "[2]; 0.2 mg per dish, 2 hr", "value": 0, "unit": "%"}, {"measurement": "Percent Flea Mortality", "setting": "[2]; 0.2 mg per dish, 3 hr", "value": 0, "unit": "%"}, {"measurement": "Percent Flea Mortality", "setting": "[2]; 0.2 mg per dish, 4 hr", "value": 0, "unit": "%"}, {"measurement": "Percent Flea Mortality", "setting": "[2]; 0.2 mg per dish, 24 hr", "value": 22, "unit": "%"}, {"measurement": "Percent Flea Mortality", "setting": "[2]; 0.2 mg per dish, 48 hr", "value": 45, "unit": "%"}, {"measurement": "Percent Flea Mortality", "setting": "[2]; 0.2 mg per dish, 72 hr", "value": 72, "unit": "%"}, {"measurement": "Percent Flea Mortality", "setting": "[2]; 0.2 mg per dish, 96 hr", "value": 79, "unit": "%"}, {"measurement": "Repellent activity against fleas", "setting": "[2]; 0.2 mg, 1 mg and 2 mg per dish", "value": "no repellent activity"}, {"measurement": "Toxicant activity against fleas", "setting": "[2]; 0.2 mg, 1 mg and 2 mg per dish", "value": "only delayed toxicant activity"}, {"measurement": "Percent Flea Mortality", "setting": "[2]; 1 mg per dish, 1 hr", "value": 0, "unit": "%"}, {"measurement": "Percent Flea Mortality", "setting": "[2]; 1 mg per dish, 2 hr", "value": 0, "unit": "%"}, {"measurement": "Percent Flea Mortality", "setting": "[2]; 1 mg per dish, 3 hr", "value": 16, "unit": "%"}, {"measurement": "Percent Flea Mortality", "setting": "[2]; 1 mg per dish, 4 hr", "value": 38, "unit": "%"}, {"measurement": "Percent Flea Mortality", "setting": "[2]; 1 mg per dish, 24 hr", "value": 66, "unit": "%"}, {"measurement": "Percent Flea Mortality", "setting": "[2]; 1 mg per dish, 48 hr", "value": 92, "unit": "%"}, {"measurement": "Percent Flea Mortality", "setting": "[2]; 1 mg per dish, 72 hr", "value": 89, "unit": "%"}, {"measurement": "Percent Flea Mortality", "setting": "[2]; 1 mg per dish, 96 hr", "value": 98, "unit": "%"}, {"measurement": "Percent Flea Mortality", "setting": "[2]; 2 mg per dish, 1 hr", "value": 0, "unit": "%"}, {"measurement": "Percent Flea Mortality", "setting": "[2]; 2 mg per dish, 2 hr", "value": 0, "unit": "%"}, {"measurement": "Percent Flea Mortality", "setting": "[2]; 2 mg per dish, 3 hr", "value": 26, "unit": "%"}, {"measurement": "Percent Flea Mortality", "setting": "[2]; 2 mg per dish, 4 hr", "value": 50, "unit": "%"}, {"measurement": "Percent Flea Mortality", "setting": "[2]; 2 mg per dish, 24 hr", "value": 77, "unit": "%"}, {"measurement": "Percent Flea Mortality", "setting": "[2]; 2 mg per dish, 48 hr", "value": 84, "unit": "%"}, {"measurement": "Percent Flea Mortality", "setting": "[2]; 2 mg per dish, 72 hr", "value": 91, "unit": "%"}, {"measurement": "Percent Flea Mortality", "setting": "[2]; 2 mg per dish, 96 hr", "value": 94, "unit": "%"}, {"measurement": "Repellent activity against the cockroaches", "setting": "[3]; 1 mg per dish", "value": "weak repellent"}, {"measurement": "Percent Repellency", "setting": "[3]; 1 mg per dish, 30 min", "value": 70, "unit": "%"}, {"measurement": "Percent Repellency", "setting": "[3]; 1 mg per dish, 1 hr", "value": 60, "unit": "%"}, {"measurement": "Percent Repellency", "setting": "[3]; 1 mg per dish, 2 hr", "value": 50, "unit": "%"}, {"measurement": "Percent Repellency", "setting": "[3]; 1 mg per dish, 3 hr", "value": 78, "unit": "%"}, {"measurement": "Percent Repellency", "setting": "[3]; 1 mg per dish, 4 hr", "value": 78, "unit": "%"}, {"measurement": "Percent Repellency", "setting": "[3]; 1 mg per dish, 5 hr", "value": 78, "unit": "%"}, {"measurement": "Percent Repellency", "setting": "[3]; 1 mg per dish, 24 hr", "value": 56, "unit": "%"}, {"measurement": "Percent Repellency", "setting": "[3]; 1 mg per dish, 48 hr", "value": 78, "unit": "%"}, {"measurement": "Percent Repellency", "setting": "[3]; 1 mg per dish, 120 hr", "value": 100, "unit": "%"}, {"measurement": "Percent Repellency", "setting": "[3]; 10 mg per dish, 30 min", "value": 90, "unit": "%"}, {"measurement": "Percent Repellency", "setting": "[3]; 10 mg per dish, 1 hr", "value": 100, "unit": "%"}, {"measurement": "Percent Repellency", "setting": "[3]; 10 mg per dish, 2 hr", "value": 100, "unit": "%"}, {"measurement": "Percent Repellency", "setting": "[3]; 10 mg per dish, 3 hr", "value": 100, "unit": "%"}, {"measurement": "Percent Repellency", "setting": "[3]; 10 mg per dish, 4 hr", "value": 100, "unit": "%"}, {"measurement": "Percent Repellency", "setting": "[3]; 10 mg per dish, 5 hr", "value": 100, "unit": "%"}, {"measurement": "Percent Repellency", "setting": "[3]; 10 mg per dish, 24 hr", "value": 100, "unit": "%"}, {"measurement": "Percent Repellency", "setting": "[3]; 10 mg per dish, 48 hr", "value": 100, "unit": "%"}, {"measurement": "Percent Repellency", "setting": "[3]; 10 mg per dish, 120 hr", "value": 100, "unit": "%"}, {"measurement": "Number of cockroach deaths compared with the control", "setting": "[3]; any of the treatments (30 mg Deet; 1 mg or 10 mg nootkatone), up to 120 hr", "value": "not significantly different from the control"}]}
